Assay [1] relates to Wistar rats. Briefly: Open field task in corticosterone-administered rats. It is filed as in vivo. Conditions: day 15, corticosterone 35 mg/kg s.c.; versus PCB and Control.
Assay [2] deals with Wistar rats. Kind of assay: Forced swimming test in corticosterone-administered rats. It is filed as in vivo.
The nature of assay [3]: Adrenal weight in corticosterone-administered rats. It is filed as in vivo, Wistar rats. Conditions: 21 days, versus PCB.
Assay [4] concerns Wistar rats. Kind of assay: PTZ-induced seizures. The format is in vivo. Conditions: rat, in vivo.
The target in assay [5] is GS (Mus musculus, UniProt P15105). It is filed as in vivo, BALB/c mice. More on the design: from tissue; host or cells: mouse brain (whole brain, cortex, hippocampus, thalamus/hypothalamus). The note with it: 24 h after single i.p., NF 10 and 100 mg/kg. Here is the method: (§1) Cortex, hippocampi and thalamus/hypothalamus were carefully isolated immediately after euthanasia. Membranes were prepared and the activity of GS determined in these different structures (as mentioned above for the whole brain).

The target in another assay is T1, glutamine synthetase (Rattus norvegicus, UniProt P09606).
T1 construct: Wistar rat brain homogenates were incubated with naftazone; from tissue; host or cells: Wistar rat brain homogenate or membranes; in A19 also liver and lungs
Briefly: Proteins precipitated by NF from rat brain homogenate (mass spectrometry). It is filed as binding. Conditions: 8% gel, native conditions.

In another assay the target is T2, Wistar rat brain GS (Rattus norvegicus, UniProt P09606).
T2 construct: from tissue; host or cells: Wistar rat brain homogenate or membranes; in A19 also liver and lungs
Kind of assay: GS activity in Wistar rat brain homogenates. It is filed as biochemical. Conditions: in absence of 2β-ME. As for the experimental part:
GS activity was assessed as mentioned above for purified sheep brain GS.

The target of the next assay is T3, purified pig brain GS (Sus scrofa, UniProt P46410).
T3 construct: Fifty microlitre of purified pig brain GS (3 mg/ml) was added to one peripheral well; from tissue; host or cells: pig brain (purified enzyme)
Kind of assay: Interaction of NF and purified pig GS (agarose diffusion, precipitation, spot blot, western blot). It is filed as binding. Here is the method:
Five ml of agarose 0.1% were let to polymerise in a Petri dish. Five wells with equal volume and distance from each other, 1 central and 4 peripherals, were made on it using a 300 μl tip. The central well was filed with 50 μl of NF solution ([…]). Fifty microlitre of purified pig brain GS (3 mg/ml) was added to one peripheral well. In two other wells either 50 μl of TBS or FCS was added. The gel was humidified and left at 37° C. for 48 h.
The final concentration of methanol per assay tube was 10% V/V. Fixed (3 mg/ml) or variable (0.023 to 3 mg/ml) concentrations of either purified brain pig GS or rat brain homogenates were added to each assay tube. The tubes were incubated a room temperature for 5 min. Methanol (10%) and FCS were used as negative controls. The tubes were thereafter centrifuged at 700 g. Supernatant was discarded and the pellets were suspended in 100 μl working buffer and incubated for 15 min at 37° C. The reaction was finally stopped and absorbance was measured as described above.
Twenty μl of agarose gel with precipitated NF/protein complexes issued from diffusion study was applied to methanol activated PVDF membrane. Non-specific binding sites were blocked by 5% low fat skimmed milk in TBS buffer, supplemented with 0.1% tween 20. Transferred proteins were allowed to react with either polyclonal rabbit anti-GS (1/3000) or anti-GR (1/3000) antibodies for 30 min at room temperature. After one quick wash with TBS, 0.1% tween 20, horseradish peroxidase conjugated goat anti-rabbit antibody was subjected (1/5000) to the transferred proteins for 30 min at room temperature.
Twenty μl per well of precipitated NF/protein complex were separated on 8% SDS-PAGE gel in absence or presence of 2β-mercaptoethanol. The proteins separated in presence or the absence of SDS were thereafter transferred to a nitrocellulose membrane ([…]). Non-specific binding sites were blocked by 5% low fat skimmed milk in TBS buffer, supplemented with 0.1% tween 20. Transferred proteins were thereafter allowed to react with either polyclonal rabbit anti-GS (1/3000) or anti-GR (1/3000) antibodies for 30 min at room temperature. After one quick wash with TBS, 0.1% tween 20, horseradish peroxidase conjugated goat anti-rabbit antibody was subjected (1/5000) to the transferred proteins for 30 min at room temperature.

Assay [6] concerns the target T4, GS (Rattus norvegicus, UniProt P09606). It is filed as in vivo, Wistar rats. More on the design: from tissue; host or cells: Wistar rat brain homogenate or membranes; in A19 also liver and lungs. Here is the method: as §1
The nature of assay [7]: Adrenal weight of rats administered methylprednisolone. It is filed as in vivo, Wistar rats. Here is the method:
Wistar rats were administered during 21 days once a day with methyprednisolone (5 mg/kg i.p.) plus GF (0.001, 0.01, 0.1 mg/kg), NF (1 and 10 mg/kg) or vehicle (PCB; i.p). Twenty-four hours after the last administrations, they were euthanatized. A complete necropsy was performed and main organs weighted.

In the next assay the target is GS (mung bean). The note with it: cited from earlier work.
Assay [8] deals with T4, GS. The format is in vivo, Wistar rats. More on the design: Wistar rat brain homogenates were incubated with naftazone; from tissue; host or cells: Wistar rat brain homogenate or membranes; in A19 also liver and lungs. The note with it: one hour after PTZ 50 mg/kg i.p.

Consider seven molecules from patent publication US20090209474A1, “NOVEL USES FOR DRUGS TARGETING GLUTAMINE SYNTHETASE” (NEWTHERA, priority 2005, published 2009).

T4 sequence (P09606 2-373 limits assumed): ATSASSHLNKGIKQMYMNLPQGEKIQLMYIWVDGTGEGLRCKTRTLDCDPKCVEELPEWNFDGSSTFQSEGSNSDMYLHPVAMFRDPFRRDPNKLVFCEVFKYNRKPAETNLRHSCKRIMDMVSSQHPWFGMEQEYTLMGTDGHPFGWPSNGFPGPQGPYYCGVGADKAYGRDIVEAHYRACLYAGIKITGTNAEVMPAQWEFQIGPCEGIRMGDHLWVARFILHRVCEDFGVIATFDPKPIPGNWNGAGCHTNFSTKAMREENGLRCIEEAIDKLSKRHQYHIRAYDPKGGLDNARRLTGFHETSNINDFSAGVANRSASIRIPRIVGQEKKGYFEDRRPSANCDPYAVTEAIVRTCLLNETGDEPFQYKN
T2 sequence (P09606 2-373 limits assumed): as above
T3 sequence (P46410 2-373 limits assumed): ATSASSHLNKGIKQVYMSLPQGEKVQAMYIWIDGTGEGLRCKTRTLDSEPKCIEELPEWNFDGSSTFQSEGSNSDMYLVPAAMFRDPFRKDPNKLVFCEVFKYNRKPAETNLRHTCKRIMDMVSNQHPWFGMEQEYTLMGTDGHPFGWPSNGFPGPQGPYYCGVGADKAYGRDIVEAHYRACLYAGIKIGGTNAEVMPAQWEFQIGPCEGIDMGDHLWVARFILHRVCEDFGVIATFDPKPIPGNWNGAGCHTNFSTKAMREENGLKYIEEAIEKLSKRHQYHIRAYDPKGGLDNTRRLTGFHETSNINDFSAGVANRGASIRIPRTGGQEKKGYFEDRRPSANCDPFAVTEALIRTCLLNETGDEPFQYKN
T1 sequence (P09606 2-373 limits assumed): as the sequence (P09606 2-373 limits assumed) above
Sequence of GS (Mus musculus, UniProt P15105) (P15105 2-373 limits assumed): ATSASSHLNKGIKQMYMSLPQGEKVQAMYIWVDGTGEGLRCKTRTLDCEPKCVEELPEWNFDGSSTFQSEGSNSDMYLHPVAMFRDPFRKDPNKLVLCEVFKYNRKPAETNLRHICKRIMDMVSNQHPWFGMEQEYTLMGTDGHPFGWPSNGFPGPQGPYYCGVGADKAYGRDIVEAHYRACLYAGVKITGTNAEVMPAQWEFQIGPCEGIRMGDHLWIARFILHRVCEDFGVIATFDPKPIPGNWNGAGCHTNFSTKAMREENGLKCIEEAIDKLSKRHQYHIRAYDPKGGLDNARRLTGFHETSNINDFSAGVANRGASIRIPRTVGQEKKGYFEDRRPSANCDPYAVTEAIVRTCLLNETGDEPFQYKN

Regarding `CN1c2ccccc2C(NCCCCCCC(=O)O)c2ccc(Cl)cc2S1(=O)=O` (centres unmarked) [tianeptine, 7-[(3-chloro-6,11-dihydro-6-methyl-dibenzo[c,f][1,2]thiazepin-11-yl)amino] heptanoic acid S,S-dioxide], the “resting time in the open field task” value in the assay with Wistar rats [1] is reported as “higher”. Also, the “immobility in the forced swimming test” value with Wistar rats [2] (GF 0.1 mg/kg, tianeptine 0.5 mg/kg) is “clear decrease in immobility”. Also, the “immobility in the forced swimming test” value in the assay on Wistar rats [2] (day 19, corticosterone 35 mg/kg s.c., versus PCB and Control) is recorded as “comparable or lower”. Also, the adrenal weight entry in assay [3] was “higher”. Also, in the assay with Wistar rats [4], the “dose of maximum effect on seizures” value is 10 mg/kg and the “dose relation of the effect on seizures” value was “U-shaped”.
In the case of `NC(=O)NN=C1C=Cc2ccccc2C1=O` [NF, 1-oxo, 2 naphtyl semicarbazone], the “GS activity in the hippocampus” value at GS [5] is “trend to an increase of GS activity”. Moreover, on GS [5] (GF 1 mg/kg), the “GS activity in the thalamus/hypothalamus” value is reported as “decreased”. Moreover, at glutamine synthetase, the “presence of G-actin in the isolated band” value is reported as 70% and the “presence of glutamine synthetase in the isolated band” value worked out at 30%. For the same molecule, the ““high” concentration range inhibiting GS activity” value on Wistar rat brain GS is 10^−12 to 10^−14 M. For the same molecule, at purified pig brain GS (Commassie blue), the “interaction between NF and purified pig GS in agarose (0.1%) gel” value was “revealed a clear precipitated protein”. In addition, the “precipitation of GS protein by different concentration of NF” value on purified pig brain GS (NF 6.3e^−19 to 4.8e^−7 M, GS 3 mg/ml) is reported as “precipitated dose dependently GS protein”. For the same molecule, the “identity of the precipitated protein (dotblot)” value at purified pig brain GS (anti-GS antibodies) was “revealed specifically glutamine synthetase”. The “precipitated proteins subjected to rabbit anti-GR antibodies” value at purified pig brain GS (purified pig GS and whole rat brain homogenates) is given as “did not reveal any protein”. At GS [6] (NF 1 and 10 mg/kg i.p.), the “GS activity in the cortex” value is on record as “No significant treatment-effect” and the “GS activity in the hippocampus” value is “increased GS activity”. The “GS activity in the thalamus/hypothalamus” value at GS [6] (NF 1 and 10 mg/kg i.p., twenty four hours after administration) is listed as “dose-dependently decreased GS activity”. Besides, the “dose of maximum effect on hippocampus GS activity” value on GS [6] (rat, in vivo) is reported as 1 mg/kg. Further, the adrenal weight result in assay [7] (GF 0.001, 0.01, 0.1 mg/kg, NF 1 and 10 mg/kg, methyprednisolone 5 mg/kg i.p., 21 days, versus PCB) was “higher”. In assay [7] (rat, in vivo), the “dose relation of the effect on adrenal weight” value is “dose-dependent effect”.
The term Ki denotes a dissociation constant, usually derived from enzyme kinetics or from competition with a known ligand. Turning to `NC1(C(=O)O)CCC(P(=O)(O)O)C1` (centres unmarked) [Cyclopentane phosphinothricin, 1-Amino-3-phosphono-cyclopentane-carboxylic acid], on GS (mung bean), the Ki is 0.47 µM.
As to `C1CCc2nnnn2CC1` [PTZ, pentylenetetrazole], on GS [8], the “GS activity in the cortex, hippocampus and thalamus” value is given as “low”.
Take `[Li]` [lithium, Li2CO3]: the “maximum decrease of GS activity” value on Wistar rat brain GS (at 0.01 M) turned out to be 40%.
On to `NC1(C(=O)O)COC(P(=O)(O)O)C1` (centres unmarked) [Tetrahydrofuran phosphinothricin, 3-Amino-5-phosphono-tetrahydro-furan-3-carboxylic acid], for which, on GS (mung bean), the Ki was 5 µM.
On to `[Sr+2]` [strontium], for which the “maximum decrease of GS activity” value on Wistar rat brain GS (at 10^−10 M) came to 75%.
